From the supplement of paper PMC10307832

Tests used:
Test in all cases: relative viability (nuclei count vs DMSO), 5 days (fraction); higher = more cells survive
Selisistat + Bortezomib = compound: C1CC(C2=C(C1)C3=C(N2)C=CC(=C3)Cl)C(=O)N [Selisistat] + CC(C)C[C@H](NC(=O)[C@H](Cc1ccccc1)NC(=O)c1cnccn1)B(O)O [Bortezomib] (partner 0.002 µM)
How it was run: (§1)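 Cells from lung cancer lines were seeded into 1536-well plates and, one day later, dosed by pin tool. Treatments were either a single drug or a fixed dose of an anchor drug with five library-drug doses (not always all listed) in √10 steps. After 5 days, nuclei were stained in a one-step fixation (final 0.05% Triton X-100, 1% formaldehyde, 1 ug/ml Hoechst) and counted on 4× images, and relative viability is the treated-to-vehicle nuclei ratio, as the median of duplicate plates.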

Selisistat + Vorinostat = compound: C1CC(C2=C(C1)C3=C(N2)C=CC(=C3)Cl)C(=O)N [Selisistat] + O=C(CCCCCCC(=O)Nc1ccccc1)NO [Vorinostat] (partner 1 µM)
How it was run: as §1

Serdemetan + Phenformin = compound: c1ccc2c(CCNc3ccc(Nc4ccncc4)cc3)c[nH]c2c1 [Serdemetan] + N=C(N)NC(=N)NCCc1ccccc1 [Phenformin] (partner 250 µM)
How it was run: as §1

Serdemetan + AZD7762 = compound: c1ccc2c(CCNc3ccc(Nc4ccncc4)cc3)c[nH]c2c1 [Serdemetan] + NC(=O)Nc1cc(-c2cccc(F)c2)sc1C(=O)N[C@H]1CCCNC1 [AZD7762] (partner 0.2 µM)
How it was run: as §1

| Cell Line | relative viability (Selisistat + Bortezomib; first compound 0.4 µM) | relative viability (Selisistat + Bortezomib; first compound 1.265 µM) | relative viability (Selisistat + Bortezomib; first compound 4 µM) | relative viability (Selisistat + Bortezomib; first compound 12.65 µM) | relative viability (Selisistat + Bortezomib; first compound 40 µM) | relative viability (Selisistat + Vorinostat; first compound 0.4 µM) | relative viability (Selisistat + Vorinostat; first compound 1.265 µM) | relative viability (Selisistat + Vorinostat; first compound 4 µM) | relative viability (Selisistat + Vorinostat; first compound 12.65 µM) | relative viability (Selisistat + Vorinostat; first compound 40 µM) | relative viability (Serdemetan + Phenformin; first compound 0.04 µM) | relative viability (Serdemetan + Phenformin; first compound 0.1265 µM) | relative viability (Serdemetan + Phenformin; first compound 0.4 µM) | relative viability (Serdemetan + Phenformin; first compound 1.265 µM) | relative viability (Serdemetan + Phenformin; first compound 4 µM) | relative viability (Serdemetan + AZD7762; first compound 0.04 µM) | relative viability (Serdemetan + AZD7762; first compound 0.1265 µM) | relative viability (Serdemetan + AZD7762; first compound 0.4 µM) | relative viability (Serdemetan + AZD7762; first compound 1.265 µM) | relative viability (Serdemetan + AZD7762; first compound 4 µM) |
| --- | --- | --- | --- | --- | --- | --- | --- | --- | --- | --- | --- | --- | --- | --- | --- | --- | --- | --- | --- | --- |
| HCC-44 | 0.857 | 0.908 | 1.02 | 0.926 | 0.952 | 1.08 | 1.09 | 1.21 | 1.24 | 1.24 | 0.21 | 0.236 | 0.21 | 0.136 | 0.213 | 0.921 | 1.01 | 0.994 | 0.936 | 0.934 |
| HCC-827 | 1.06 | 1.04 | 0.994 | 0.886 | 0.951 | 0.851 | 0.829 | 0.862 | 0.862 | 0.837 | 0.415 | 0.406 |  | 0.314 | 0.366 | 0.218 | 0.157 |  | 0.18 | 0.17 |
| NCI-H1623 |  |  |  |  |  |  |  |  |  |  | 0.618 | 0.617 | 0.37 | 0.476 | 0.739 |  |  |  |  |  |
| NCI-H2347 | 0.772 | 1.11 |  | 0.907 | 0.831 | 0.478 | 0.484 |  | 0.666 | 0.772 | 0.52 | 0.382 | 0.366 | 0.3 | 0.289 | 0.673 | 0.686 | 0.668 | 0.462 | 0.406 |
| PC-14 | 0.848 | 0.713 | 0.861 | 0.886 | 0.888 | 0.914 | 0.764 | 0.843 | 0.776 | 0.931 | 0.59 | 0.537 |  | 0.531 | 0.549 | 0.327 | 0.357 | 0.204 | 0.304 | 0.161 |
| NCI-H1651 | 1.02 | 0.939 | 0.868 | 0.874 | 0.847 | 0.625 | 0.672 | 0.552 | 0.638 | 0.622 | 0.283 | 0.319 | 0.224 | 0.205 | 0.213 | 0.375 | 0.286 | 0.363 | 0.248 | 0.213 |
| HARA | 1.12 | 1.19 | 1.14 | 1.15 | 1.06 | 0.436 | 0.552 | 0.529 | 0.756 | 0.85 | 0.466 | 0.457 | 0.499 | 0.257 | 0.304 | 0.298 | 0.196 | 0.266 | 0.23 | 0.304 |
| NCI-H1650 | 0.281 | 0.205 | 0.222 | 0.202 | 0.22 | 0.578 | 0.533 | 0.704 | 0.726 | 0.67 | 0.424 | 0.462 | 0.268 | 0.391 | 0.285 |  |  |  |  |  |
| NCI-H1395 |  |  |  |  |  | 0.827 | 0.671 |  | 0.536 | 0.702 | 0.448 | 0.448 | 0.471 | 0.388 | 0.332 | 0.42 | 0.398 | 0.415 | 0.369 | 0.384 |
| LU99A | 1.17 | 1.15 | 1.33 | 1.16 | 1.11 | 0.514 | 0.5 | 0.6 | 0.51 | 0.558 | 0.887 | 0.891 | 0.763 | 0.417 | 0.354 | 0.315 | 0.347 | 0.212 | 0.117 | 0.14 |
| NCI-H1355 | 1.18 | 1.21 |  | 1.13 | 1.35 | 0.686 | 0.696 | 0.704 | 0.719 | 0.798 | 0.447 | 0.444 | 0.466 | 0.332 | 0.432 | 0.631 | 0.512 | 0.623 | 0.469 | 0.484 |
| HCC-78 | 0.515 | 0.471 |  | 0.489 | 0.514 | 0.495 | 0.467 | 0.437 | 0.428 | 0.6 | 0.612 | 0.581 | 0.595 | 0.581 | 0.516 | 0.578 | 0.571 | 0.514 | 0.589 | 0.503 |
| NCI-H1563 | 0.855 | 0.753 | 0.752 | 0.789 | 0.581 |  |  |  |  |  | 0.689 | 0.591 | 0.567 | 0.586 | 0.589 |  |  |  |  |  |
| HCC-15 | 1.09 | 1.03 |  | 1.04 | 1.29 | 0.912 | 0.931 | 0.875 | 0.878 | 1.07 | 0.428 | 0.459 | 0.457 | 0.337 | 0.367 | 0.952 | 1.49 | 1.23 | 0.72 | 1.07 |
| EKVX | 1 | 1 | 0.671 | 0.84 | 1.04 | 0.708 | 0.757 |  | 0.903 | 0.655 | 0.225 | 0.243 | 0.14 |  | 0.241 | 0.808 | 0.746 |  |  | 0.649 |
| NCI-H2087 | 0.738 | 0.709 | 0.734 | 0.806 | 0.719 | 0.897 | 0.667 |  | 0.422 | 0.76 | 0.446 | 0.47 | 0.455 | 0.267 | 0.253 | 1.23 | 0.828 | 0.778 | 0.494 | 0.535 |
| LK-2 |  |  |  |  |  | 0.396 | 0.308 | 0.376 | 0.339 | 0.365 | 0.318 | 0.64 | 0.423 | 0.215 | 0.335 | 0.454 | 0.304 | 0.357 | 0.269 | 0.251 |
| NCI-H1437 | 0.575 | 0.451 | 0.378 | 0.431 | 0.515 | 0.875 | 0.837 | 0.886 | 0.876 | 0.74 | 0.314 | 0.32 | 0.315 | 0.298 | 0.37 | 1.13 | 1.12 | 1.1 | 0.979 | 0.876 |
| COR-L23 | 0.981 | 1.02 | 1.09 | 0.829 | 0.863 | 0.499 | 0.49 | 0.577 | 0.515 | 0.573 | 0.448 | 0.468 | 0.427 | 0.414 | 0.42 |  |  |  |  |  |
